{
  "source": "the NIST ThermoML archive (doi:10.1021/je049801y)",
  "conditions": "Crystal",
  "note": "Numbers after ± are expanded uncertainties.",
  "data": [
    {"smiles": "O=C(O)c1ccc(C(=O)O)cc1", "note": "[1,4-benzenedicarboxylic acid]", "values": [
      {"measurement": "Normal melting temperature", "value": "430.0 ± 1", "unit": "°C"}
    ]},
    {"smiles": "O=C(O)c1cccc(C(=O)O)c1", "note": "[1,3-benzenedicarboxylic acid]", "values": [
      {"measurement": "Normal melting temperature", "value": "348.1 ± 1", "unit": "°C"}
    ]},
    {"smiles": "Cc1ccc(C(=O)O)cc1", "note": "[4-methylbenzoic acid]", "values": [
      {"measurement": "Normal melting temperature", "value": "182.0 ± 1", "unit": "°C"}
    ]},
    {"smiles": "O=C(O)c1ccccc1", "note": "[benzoic acid]", "values": [
      {"measurement": "Normal melting temperature", "value": "122.4 ± 1", "unit": "°C"}
    ]}
  ]
}
